Results reported in ChEMBL document CHEMBL3400096, “6,7-Dihydrobenzo[f]benzo[4,5]imidazo[1,2-d][1,4]oxazepine derivatives as selective inhibitors of PI3Kα” (Bioorg Med Chem, 2015).

Key:
[1] = Antiproliferative activity against human HL60 cells assessed as inhibition of absorbance after 72 hrs by MTT assay; type: functional, cell-based; conditions: HL-60, 72 h
[2] = Antiproliferative activity against human HCT116 cells assessed as inhibition of absorbance after 72 hrs by MTT assay; type: functional, cell-based; conditions: HCT-116, 72 h
[3] = Antiproliferative activity against human HuH7 cells assessed as inhibition of absorbance after 72 hrs by MTT assay; type: functional, cell-based; conditions: Huh-7, 72 h
A549 = assay: Antiproliferative activity against human A549 cells assessed as inhibition of absorbance after 72 hrs by MTT assay; type: functional, cell-based; conditions: A549, 72 h
[4] = target: T1, Phosphatidylinositol 4,5-bisphosphate 3-kinase catalytic subunit delta isoform (Homo sapiens, UniProt O00329); assay: Inhibition of recombinant PI3Kdelta (unknown origin) using […] as substrate after 3 hrs incubation by competitive fluorescence polarization kinase activity assay
T1 sequence (O00329 whole entry): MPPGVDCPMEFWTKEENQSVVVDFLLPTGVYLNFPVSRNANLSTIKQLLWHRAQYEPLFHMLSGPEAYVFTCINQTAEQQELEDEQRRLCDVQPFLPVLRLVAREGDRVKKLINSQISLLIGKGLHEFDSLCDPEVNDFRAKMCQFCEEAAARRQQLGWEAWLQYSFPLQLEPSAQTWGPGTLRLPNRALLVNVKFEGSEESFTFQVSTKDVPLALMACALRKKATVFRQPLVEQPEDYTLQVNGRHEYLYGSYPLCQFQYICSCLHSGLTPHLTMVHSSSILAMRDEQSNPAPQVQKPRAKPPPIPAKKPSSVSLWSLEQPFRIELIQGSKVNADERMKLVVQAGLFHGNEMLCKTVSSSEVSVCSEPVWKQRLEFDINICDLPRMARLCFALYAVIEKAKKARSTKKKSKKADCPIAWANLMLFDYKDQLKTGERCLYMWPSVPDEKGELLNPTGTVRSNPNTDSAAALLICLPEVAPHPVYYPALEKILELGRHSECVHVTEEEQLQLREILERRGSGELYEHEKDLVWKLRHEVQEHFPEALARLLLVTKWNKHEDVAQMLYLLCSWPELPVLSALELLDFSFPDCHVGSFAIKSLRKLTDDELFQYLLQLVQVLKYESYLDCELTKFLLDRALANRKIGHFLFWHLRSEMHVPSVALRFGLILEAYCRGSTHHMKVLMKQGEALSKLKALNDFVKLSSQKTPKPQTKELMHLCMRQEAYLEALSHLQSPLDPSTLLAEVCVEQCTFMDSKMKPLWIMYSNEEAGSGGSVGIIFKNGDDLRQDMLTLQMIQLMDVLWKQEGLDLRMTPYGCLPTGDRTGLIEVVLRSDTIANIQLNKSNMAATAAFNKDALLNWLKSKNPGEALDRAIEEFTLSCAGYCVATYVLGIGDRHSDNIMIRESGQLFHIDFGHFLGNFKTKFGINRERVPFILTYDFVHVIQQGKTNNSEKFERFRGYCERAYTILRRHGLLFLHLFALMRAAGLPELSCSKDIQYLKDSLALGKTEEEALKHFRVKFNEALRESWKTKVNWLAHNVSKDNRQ

[5] = target: Phosphatidylinositol 4,5-bisphosphate 3-kinase catalytic subunit alpha isoform (Homo sapiens, UniProt P42336); assay: Inhibition of recombinant PI3Kalpha (unknown origin) using […] as substrate after 3 hrs incubation by competitive fluorescence polarization kinase activity assay
[6] = target: Phosphatidylinositol 4,5-bisphosphate 3-kinase catalytic subunit gamma isoform (Homo sapiens, UniProt P48736); assay: Inhibition of recombinant PI3Kgamma (unknown origin) using […] as substrate after 3 hrs incubation by competitive fluorescence polarization kinase activity assay
[7] = target: Phosphatidylinositol 4,5-bisphosphate 3-kinase catalytic subunit beta isoform (Homo sapiens, UniProt P42338); assay: Inhibition of recombinant PI3Kbeta (unknown origin) […] after 3 hrs incubation by competitive fluorescence polarization kinase activity assay
Sequence of Phosphatidylinositol 4,5-bisphosphate 3-kinase catalytic subunit beta isoform (P42338 whole entry, canonical isoform): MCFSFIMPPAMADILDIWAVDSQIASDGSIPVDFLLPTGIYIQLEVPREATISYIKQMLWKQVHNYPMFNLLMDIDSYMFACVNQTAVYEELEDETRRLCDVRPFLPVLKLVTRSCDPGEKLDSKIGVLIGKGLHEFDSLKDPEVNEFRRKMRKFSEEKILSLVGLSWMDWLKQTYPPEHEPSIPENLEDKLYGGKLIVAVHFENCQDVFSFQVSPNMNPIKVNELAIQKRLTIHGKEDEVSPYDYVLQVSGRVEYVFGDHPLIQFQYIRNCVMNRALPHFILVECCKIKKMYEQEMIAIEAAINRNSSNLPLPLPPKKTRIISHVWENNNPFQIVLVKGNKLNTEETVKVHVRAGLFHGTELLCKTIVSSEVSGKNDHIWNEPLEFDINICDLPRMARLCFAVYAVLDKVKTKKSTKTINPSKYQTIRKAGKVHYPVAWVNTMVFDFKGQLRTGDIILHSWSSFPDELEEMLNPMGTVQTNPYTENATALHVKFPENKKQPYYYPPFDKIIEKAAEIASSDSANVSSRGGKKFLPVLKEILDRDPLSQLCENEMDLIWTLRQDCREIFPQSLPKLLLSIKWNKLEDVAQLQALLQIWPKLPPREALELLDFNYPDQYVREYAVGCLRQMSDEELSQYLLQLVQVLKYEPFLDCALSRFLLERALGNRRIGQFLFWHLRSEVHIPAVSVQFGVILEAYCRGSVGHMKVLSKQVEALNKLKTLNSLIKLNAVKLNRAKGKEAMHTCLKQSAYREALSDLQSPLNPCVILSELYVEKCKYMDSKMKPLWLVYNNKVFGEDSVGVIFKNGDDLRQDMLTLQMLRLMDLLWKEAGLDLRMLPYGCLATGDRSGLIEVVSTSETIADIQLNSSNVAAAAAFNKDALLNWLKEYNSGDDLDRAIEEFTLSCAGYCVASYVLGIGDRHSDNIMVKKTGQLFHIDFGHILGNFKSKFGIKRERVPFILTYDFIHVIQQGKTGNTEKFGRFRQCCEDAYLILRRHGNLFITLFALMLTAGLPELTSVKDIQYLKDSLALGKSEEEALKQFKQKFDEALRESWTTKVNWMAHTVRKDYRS

Sequence of Phosphatidylinositol 4,5-bisphosphate 3-kinase catalytic subunit alpha isoform (P42336 whole entry, canonical isoform): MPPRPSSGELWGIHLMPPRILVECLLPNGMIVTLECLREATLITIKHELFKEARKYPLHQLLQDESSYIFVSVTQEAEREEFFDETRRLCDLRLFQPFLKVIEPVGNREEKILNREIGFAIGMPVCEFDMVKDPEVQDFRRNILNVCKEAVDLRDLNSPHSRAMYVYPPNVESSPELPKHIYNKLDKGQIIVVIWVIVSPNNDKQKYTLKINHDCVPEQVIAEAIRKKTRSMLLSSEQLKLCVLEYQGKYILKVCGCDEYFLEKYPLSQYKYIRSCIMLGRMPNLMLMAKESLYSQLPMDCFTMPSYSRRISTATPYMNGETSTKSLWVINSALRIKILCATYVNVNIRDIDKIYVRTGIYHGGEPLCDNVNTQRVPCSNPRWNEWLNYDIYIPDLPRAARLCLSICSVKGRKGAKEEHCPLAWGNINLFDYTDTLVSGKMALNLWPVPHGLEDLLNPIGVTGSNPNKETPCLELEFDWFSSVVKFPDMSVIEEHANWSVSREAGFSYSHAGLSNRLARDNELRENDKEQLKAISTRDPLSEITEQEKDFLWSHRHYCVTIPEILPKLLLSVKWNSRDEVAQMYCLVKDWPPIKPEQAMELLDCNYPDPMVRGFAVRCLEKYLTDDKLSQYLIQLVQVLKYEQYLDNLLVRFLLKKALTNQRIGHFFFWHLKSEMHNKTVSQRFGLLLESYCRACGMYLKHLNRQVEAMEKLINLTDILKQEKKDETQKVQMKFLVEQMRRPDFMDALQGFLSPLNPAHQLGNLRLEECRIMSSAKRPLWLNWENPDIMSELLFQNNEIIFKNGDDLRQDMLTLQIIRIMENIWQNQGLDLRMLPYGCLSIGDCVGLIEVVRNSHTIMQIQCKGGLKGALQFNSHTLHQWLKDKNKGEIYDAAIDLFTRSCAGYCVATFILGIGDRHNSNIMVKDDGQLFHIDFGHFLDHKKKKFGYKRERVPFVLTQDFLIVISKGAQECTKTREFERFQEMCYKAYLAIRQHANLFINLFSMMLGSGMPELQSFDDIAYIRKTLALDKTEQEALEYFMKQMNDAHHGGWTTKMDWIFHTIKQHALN
Sequence of Phosphatidylinositol 4,5-bisphosphate 3-kinase catalytic subunit gamma isoform (P48736 whole entry, canonical isoform): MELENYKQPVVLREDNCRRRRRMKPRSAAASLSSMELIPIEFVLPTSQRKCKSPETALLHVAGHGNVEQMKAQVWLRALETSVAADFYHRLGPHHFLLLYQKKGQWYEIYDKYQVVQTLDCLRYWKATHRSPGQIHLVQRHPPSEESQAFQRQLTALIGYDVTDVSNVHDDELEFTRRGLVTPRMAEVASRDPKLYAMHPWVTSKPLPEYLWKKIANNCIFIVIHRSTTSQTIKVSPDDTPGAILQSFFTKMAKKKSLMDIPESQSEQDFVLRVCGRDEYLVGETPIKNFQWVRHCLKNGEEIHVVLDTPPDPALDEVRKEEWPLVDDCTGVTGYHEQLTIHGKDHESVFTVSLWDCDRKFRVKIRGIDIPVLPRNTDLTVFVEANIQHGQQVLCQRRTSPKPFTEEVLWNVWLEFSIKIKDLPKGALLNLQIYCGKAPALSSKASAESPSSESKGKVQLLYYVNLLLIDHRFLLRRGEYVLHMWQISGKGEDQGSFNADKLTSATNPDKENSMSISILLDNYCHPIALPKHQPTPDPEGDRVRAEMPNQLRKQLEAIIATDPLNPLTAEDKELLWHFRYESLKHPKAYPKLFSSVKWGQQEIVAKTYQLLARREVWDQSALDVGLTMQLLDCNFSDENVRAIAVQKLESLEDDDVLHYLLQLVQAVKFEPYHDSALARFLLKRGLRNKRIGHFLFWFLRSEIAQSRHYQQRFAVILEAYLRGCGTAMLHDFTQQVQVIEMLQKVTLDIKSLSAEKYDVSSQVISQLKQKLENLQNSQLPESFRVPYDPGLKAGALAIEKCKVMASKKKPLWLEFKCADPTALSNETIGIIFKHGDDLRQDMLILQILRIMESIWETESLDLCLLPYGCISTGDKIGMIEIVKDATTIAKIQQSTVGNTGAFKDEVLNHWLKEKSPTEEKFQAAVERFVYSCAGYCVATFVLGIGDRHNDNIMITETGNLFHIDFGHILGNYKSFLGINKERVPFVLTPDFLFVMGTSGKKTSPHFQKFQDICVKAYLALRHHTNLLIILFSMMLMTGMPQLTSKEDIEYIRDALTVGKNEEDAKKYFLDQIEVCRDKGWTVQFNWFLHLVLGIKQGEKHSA

SMILES | IC50 [1] [µM] | IC50 [2] [µM] | IC50 [3] [µM] | IC50 (A549) [µM] | IC50 [4] [µM] | IC50 [5] [µM] | IC50 [6] [µM] | IC50 [7] [µM]
FC(F)(F)c1ccc2c(c1)nc1n2CCOc2ccc(Cl)cc2-1 | 38 | 34.7 | 42.3 | 38.3 |  |  |  | 
Fc1ccc2c(c1)nc1n2CCOc2ccccc2-1 | 82.5 | 76.5 | 91.9 | 89.4 |  |  |  | 
Cc1ccc2c(c1)nc1n2CCOc2ccccc2-1 | 75.2 | 73.5 | 82.6 | 83.7 |  |  |  | 
Clc1ccc2c(c1)-c1nc3cc(Br)ccc3n1CCO2 | 66.7 | 64.4 | 72.1 | 74.1 |  |  |  | 
Cc1ccc2c(c1)-c1nc3cc(C)ccc3n1CCO2 | 0.58 | 0.59 | 0.67 | 0.61 | > 50 | 0.118 | 17.1 | 0.394
FC(F)(F)c1ccc2c(c1)nc1n2CCOc2ccc(Br)cc2-1 | 66.4 | 60.6 | 69.7 | 68.5 |  |  |  | 
Cc1ccc2c(c1)-c1nc3ccccc3n1CCO2 | 122 | 112 | 144 | 148 |  |  |  | 
Cc1ccc2c(c1)-c1nc3cc(Cl)ccc3n1CCO2 | 51.6 | 46.4 | 64.5 | 55.6 |  |  |  | 
O=c1cc(N2CCOCC2)oc2c(-c3ccccc3)cccc12 [LY-294002] |  | 51.8 | 67.2 | 82.3 | 1.36 |  |  | 
Fc1ccc2c(c1)nc1n2CCOc2ccc(Cl)cc2-1 | 1.89 | 1.83 | 1.35 | 1.71 | 42.6 | 0.283 | 21.7 | 0.488
Brc1ccc2c(c1)nc1n2CCOc2ccccc2-1 | 44.3 | 43.9 | 58.5 | 49.5 |  |  |  | 
c1ccc2c(c1)OCCn1c-2nc2ccccc21 | 108 | 101 | 124 | 133 |  |  |  | 
Brc1ccc2c(c1)-c1nc3ccccc3n1CCO2 | 103 | 98.5 | 132 | 128 |  |  |  | 
Clc1ccc2c(c1)-c1nc3ccccc3n1CCO2 | 91.3 | 87.7 | 92.5 | 108 |  |  |  | 
